Experiment [1] has as its system Fusobacterium necrophorum ATCC 27852. As to the kind of experiment: MIC by agar dilution method (Wilkins-Chalgren Agar). The experiment is classed as cell-based. The protocol: (§1) In this example, microbiological studies were initiated with Virginiamycin and other antibiotics so as to determine their potency in controlling liver abscesses. As Fusobacterium necrophorum has been associated with bovine liver abscesses in cattle, it was determined that microbiological studies involving this bacterium would be undertaken with representative examples of antibiotics including Virginiamycin.
(§2) The MIC's for Fusobacterium necrophorum was done by the agar dilution method. Two-fold serial dilutions of each compound was incorporated into Wilkins-Chalgren Agar plates. Each Fusobacterium necrophorum was propagated in Peptone-Yeast-Glucose broth and inoculated onto the plates with a multipoint inoculating device. The plates were incubated at 37°C in an atmosphere of 10% H₂, 5% CO₂ and 85% N₂, for 40 hours.

Experiment [2] deals with Fusobacterium necrophorum ATCC 25286. The description is as above. The experiment is classed as cell-based. The protocol:
as §1, §2

Experiment [3] has as its system Fusobacterium necrophorum Colorado Strain. The experiment is described as above. The experiment is classed as cell-based. As for the experimental part:
as §1, §2

The test system of experiment [4] is Fusobacterium necrophorum. As to the kind of experiment: MIC of Virginiamycin and ionophores alone and combined at fixed ratios, two-fold serial dilution of a stock solution. The experiment is classed as cell-based. The conditions noted are these: for MIC Alone: antibiotic alone; for MIC: Fusobacterium necrophorum, read-out: MIC Alone. The protocol: In this example, microbiological studies were initiated with combinations of antibiotics from the Virginiamycin family of antibiotics and ionophore family of antibiotics so as to determine their potency in controlling liver abscesses. As Fusobacterium necrophorum has been associated with bovine liver abscess in cattle, it was determined that microbiological studies involving this bacterium would be undertaken. Since the liver abscess etiology is poorly defined, it is difficult to precisely extrapolate these studies to animal disease. […]
Virginiamycin was combined with an antibiotic from the ionophore family in a ratio expected in medicated feeds, eg. Salinomycin at 20 g/Ton and Virginamycin at 15 g/Ton have a ratio of 1.3:1. For the microbilogical studies, a stock solution was made up to contain Salinomycin and Virginiamycin in the same ratio of 1.3:1. The stock solution was serially diluted two fold. The dilutions were incubated with F. necr. The end point was the lowest concentrations antibiotics which inhibited the growth of F. necr., or MIC for minimal inhibitory concentration, eg. the MIC of Salinomycin was 5 µg/ml while that of Virginiamycin was 1 µg/ml.

The subject of experiment [5] is Fusobacterium necrophorum (the two ATCC strains). Put plainly: MIC of factors M and S of virginiamycin, one experiment, two ATCC strains taken together. The conditions noted are these: geometric mean for the two ATCC strains. The experiment is classed as cell-based. The protocol: as §2
In the one experiment in which factors M and S of virginiamycin were tested, the MICs were 0.35 (geometric mean for the two ATCC strains) and greater than 32 µg/ml, respectively. Virginiamycin contains 75% of Factor M and 25% of Factor S.

Another experiment concerns liver abscess. As to the kind of experiment: Incidence of liver abscess at slaughter in cattle fed a ration supplemented with Virginiamycin. The experiment is classed as in vivo. The conditions noted are these: for No. of Animals With Liver Abscess: ad libitum, approximately 120 days, Total Animals 197 (control 26 of 199); for No. of Animals Without Liver Abscess: Total Animals 197. The protocol:
A cattle ration was prepared using the following formula: […]
The ration was supplemented with varying proportions of Virginiamycin and fed, ad libitum, to approximately 200 cattle weighing between 650 lbs. and 850 lbs. The cattle were processed according to standard procedures for the facility, individually weighed and identified. The treatments were continued until the cattle reached an approximate weight of 1100 lbs. (approximately 120 days).
Virginiamycin was added to the ration in the following amounts: Table 2
At slaughter, livers were identified with the individual animal number and scored for liver abscess after examination in the manner required by USDA. Livers were palpated and suspicious area were excised and examined for the presence of liver abscesses.

Setting [6] is: strain ATCC 27852, 37°C, anaerobic atmosphere, 40 hours, * = geometric mean of more than one determination.
The mark [7] stands for this setting: Fusobacterium necrophorum, ATCC25286, 40 h.
Where [8] appears, read: Fusobacterium necrophorum, ATCC27852, 40 h.
Setting [9] is: Fusobacterium necrophorum, 40 h.
Where [10] appears, read: Fasalocid : Virginiamycin, ratio 2:1.
Where [11] appears, read: Fasalocid : Virginiamycin, ratio 3:1.
[12] abbreviates: strain ATCC 25286, 37°C, anaerobic atmosphere, 40 hours, * = geometric mean of more than one determination.
The mark [13] stands for this setting: Ferrensinmycin : Virginiamycin, ratio 1.3:1.

This note sets out measurements from EP0356192A2, “Prevention & treatment of liver abscesses in animals” (SMITHKLINE BEECHAM CORPORATION, priority 1988, dated 1990).

In brackets after ≈: the same amount, converted by molar mass. Several values for one entry are separate records, joined by “and”; a condition that tells them apart may be missing. Identical values can stand only once. Like-named read-outs stand apart in the source and are kept apart here.

In experiment [1] (setting [6]), Zinc bacitracin registered a minimal inhibitory concentration (MIC) of 9.2 µg/mL.
For `CC[C@H]1OC(=O)C[C@@H](O)[C@H](C)[C@@H](O[C@@H]2O[C@H](C)[C@@H](O[C@H]3C[C@@](C)(O)[C@@H](O)[C@H](C)O3)[C@H](N(C)C)[C@H]2O)[C@@H](CC=O)C[C@@H](C)C(=O)/C=C/C(C)=C/[C@@H]1CO[C@@H]1O[C@H](C)[C@@H](O)[C@@H](OC)[C@H]1OC` [Tylosin], the MIC amounted to 0.8 mg/L (≈ 0.873 µM) in experiment [2] (setting [7]), 1.4 µg/mL (≈ 1.53 µM) in experiment [1] (setting [8]) and 1 mg/L (≈ 1.09 µM) in experiment [3] (setting [9]).
`CC[C@H]1OC(=O)[C@H](C)[C@@H](O[C@H]2C[C@@](C)(OC)[C@@H](O)[C@H](C)O2)[C@H](C)[C@@H](O[C@@H]2O[C@H](C)C[C@H](N(C)C)[C@H]2O)[C@](C)(O)C[C@@H](C)C(=O)[C@H](C)[C@@H](O)[C@]1(C)O` [Erythromycin] returned an MIC in experiment [2] (setting [7]) of 8 mg/L (≈ 10.9 µM).
Consider `CC[C@@H](C(=O)[C@@H](C)[C@@H](O)[C@H](C)CCc1ccc(C)c(O)c1C(=O)O)[C@H]1O[C@](CC)([C@H]2CC[C@](O)(CC)[C@H](C)O2)C[C@@H]1C` [Fasalocid], for which the results for the “MIC Combination” value in experiment [4] (setting [10]) and in experiment [4] (setting [11]) were 1 mg/L and 3 mg/L, respectively. Further, in experiment [4], the “MIC Alone” value is 7 mg/L and 10 mg/L.
In the case of Virginiamycin factor M, the results for the MIC in experiment [5], in experiment [2] (setting [12]) and in experiment [1] (setting [6]) were 0.35 mg/L, 0.5 mg/L and 0.25 µg/mL, respectively.
Take `CN(C)[C@@H]1C(=O)C(C(N)=O)=C(O)[C@@]2(O)C(=O)C3=C(O)c4c(O)cccc4[C@@](C)(O)[C@H]3[C@H](O)[C@@H]12` [Oxytetracyline, Oxytetracycline]: the minimum inhibitory concentration (MIC) in experiment [2] (setting [7]) is 0.03 mg/L (≈ 0.0652 µM); in experiment [1] (setting [8]), 0.25 µg/mL (≈ 0.543 µM).
On to `CC[C@@]1([C@@H]2O[C@@H]([C@H]3O[C@@](O)(CO)[C@H](C)C[C@@H]3C)C[C@@H]2C)CC[C@H]([C@]2(C)CC[C@]3(C[C@H](O)[C@@H](C)[C@@H]([C@@H](C)[C@@H](OC)[C@H](C)C(=O)O)O3)O2)O1` [Monensin], for which the minimal inhibitory concentration (MIC) in experiment [2] (setting [7]) is 6.4 mg/L (≈ 9.54 µM); in experiment [1] (setting [8]) it was 3 µg/mL (≈ 4.47 µM); in experiment [3] (setting [9]) it was 4.2 mg/L (≈ 6.26 µM); in experiment [4] it was 4 mg/L.
Turning to Virginiamycin, the minimum inhibitory concentration (MIC) is 0.9* µg/ml in experiment [2] (setting [12]); 1.0* µg/ml in experiment [1] (setting [6]); 1.0* µg/ml in experiment [3] (Colorado Strain, 37°C, anaerobic atmosphere, 40 hours, * = geometric mean of more than one determination). For the same molecule, the “effectiveness compared with Tylosin” value in experiment [1] (strain ATCC 27852, from MICs) is recorded as “twice as effective as Tylosin”. The “No. of Animals With Liver Abscess” value with liver abscess (Vm 9.1 grams/ton in ration) worked out at 16; with liver abscess (Vm 22.7 grams/ton in ration) it was 12; in the experiment on liver abscess (Vm 45.5 grams/ton in ration), 6. The “No. of Animals Without Liver Abscess” value in the experiment with liver abscess (Vm 9.1 grams/ton in ration) is listed as 181; in the experiment with liver abscess (Vm 22.7 grams/ton in ration), 185; with liver abscess (Vm 45.5 grams/ton in ration) it was 191. For the same molecule, in the experiment on liver abscess (all dose groups vs control, Chi-Square Goodness of Fit), the “effect on the incidence of liver abscess” value was “obvious beneficial effect”. Further, the “MIC Combination” value in experiment [4] (setting [10]) was 1 mg/L; in experiment [4] (setting [11]) it was 0.9 mg/L; in experiment [4] (setting [13]), 0.5 mg/L; in experiment [4] (Monensin : Virginiamycin, ratio 0.7:1), 0.5 mg/L; in experiment [4] (Monensin : Virginiamycin, ratio 2:1) it was 0.01 mg/L; in experiment [4] (Monensin : Virginiamycin, ratio 3:1) it was 0.7 mg/L. Also, the “MIC Combination” value was 0.7 mg/L in experiment [4] (Salinomycin : Virginiamycin, ratio 1:1) and 0.02 mg/L in experiment [4] (Salinomycin : Virginiamycin, ratio 1.3:1). In experiment [4] (Salinomycin : Virginiamycin, ratio 1.3:1, vs alone), the “decrease in the MIC on combination” value was 50 fold. The “MIC Alone” value in experiment [4] came out at 0.7 mg/L.
For `CC[C@@H](C(=O)[C@@H](C)[C@@H](O)[C@H](C)CCc1ccc(C)c(O)c1C(=O)O)[C@H]1O[C@](CC)([C@H]2CC[C@](O)(CC)[C@H](C)O2)C[C@@H]1C` [Lasalocid], the MIC in experiment [2] (setting [7]) is 9.1 mg/L (≈ 15.4 µM); in experiment [1] (setting [8]), 12 µg/mL (≈ 20.3 µM); in experiment [3] (setting [9]), 8.5 mg/L (≈ 14.4 µM).
As to Ferrensinmycin, in experiment [4] (setting [13]), the “MIC Combination” value was determined as 0.6 mg/L. Also, in experiment [4], the “MIC Alone” value came out at 0.5 mg/L.
On to `CC[C@@H](C(=O)[C@@H](C)[C@@H](O)[C@H](C)[C@@H]1O[C@@H]([C@@H](CC)C(=O)O)CC[C@@H]1C)[C@H]1O[C@]2(C=C[C@@H](O)[C@]3(CC[C@@](C)([C@H]4CC[C@](O)(CC)[C@H](C)O4)O3)O2)[C@H](C)C[C@@H]1C` [Salinomycin], for which the MIC amounted to 3.6 mg/L (≈ 4.79 µM) in experiment [2] (setting [7]), 4 µg/mL (≈ 5.33 µM) in experiment [1] (setting [8]), 5.7 mg/L (≈ 7.59 µM) in experiment [3] (setting [9]) and 5 mg/L in experiment [4]. The “decrease in the MIC on combination” value in experiment [4] came to 250 fold.
On to Avoparcin, for which the MIC stood at 32.0 mg/L in experiment [2] (setting [12]) and 64.0 µg/mL in experiment [1] (setting [6]).
Regarding `CN(C)[C@@H]1C(O)=C(C(N)=O)C(=O)[C@@]2(O)C(O)=C3C(=O)c4c(O)ccc(Cl)c4[C@@](C)(O)[C@H]3C[C@@H]12` [Chlortetracycline], the minimal inhibitory concentration (MIC) in experiment [2] (setting [7]) amounted to 0.02 mg/L (≈ 0.0418 µM); in experiment [1] (setting [8]), 0.12 µg/mL (≈ 0.251 µM).
On to Flavomycin, for which the minimal inhibitory concentration (MIC) in experiment [2] (setting [12]) was 0.25 mg/L; in experiment [1] (setting [6]), 0.12 µg/mL.

A word on the MIC: it is the smallest concentration in the dilution series that meets the test's criterion for growth inhibition.
